Patent publication US9693556B2, “Herbicidal pyridazinone derivatives” (SYNGENTA LIMITED, priority 2011, dated 2017)

Key:
Format in all cases: in vivo
Setaria faberi (SETFA) [1] = assay: Pre-emergence herbicidal glasshouse test on Setaria faberi; details: pre-emergence; 1000 g/h; evaluated after 13 days
In short: (§1)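 Scoring scale: 5=80-100%, 4=60-79%, 3=40-59%, 2=20-39%, 1=0-19% damage, assessed on day 13. Compound sprayed at 1000 g/h on soil-grown plants (day 1 pre-, day 8 post-emergence) kept at 24/16 °C, 14 h light.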

[2] = test system: Echinochloa crus-galli (ECHCG); assay: Pre-emergence herbicidal glasshouse test on Echinochloa crus-galli; details: pre-emergence; 1000 g/h; evaluated after 13 days
In short: as §1

Setaria faberi (SETFA) [3] = assay: Post-emergence herbicidal glasshouse test on Setaria faberi; details: post-emergence; 1000 g/h; evaluated after 13 days
In short: as §1

[4] = test system: Alopecurus myosuroides (ALOMY); assay: Post-emergence herbicidal glasshouse test on Alopecurus myosuroides; details: post-emergence; 1000 g/h; evaluated after 13 days
In short: as §1

[5] = test system: Alopecurus myosuroides (ALOMY); assay: Pre-emergence herbicidal glasshouse test on Alopecurus myosuroides; details: pre-emergence; 1000 g/h; evaluated after 13 days
In short: as §1

[6] = test system: Amaranthus retoflexus (AMARE); assay: Post-emergence herbicidal glasshouse test on Amaranthus retoflexus; details: post-emergence; 1000 g/h; evaluated after 13 days
In short: as §1

[7] = test system: Ipomoea hederacea (IPOHE); assay: Post-emergence herbicidal glasshouse test on Ipomoea hederacea; details: post-emergence; 1000 g/h; evaluated after 13 days
In short: as §1

[8] = test system: Echinochloa crus-galli (ECHCG); assay: Post-emergence herbicidal glasshouse test on Echinochloa crus-galli; details: post-emergence; 1000 g/h; evaluated after 13 days
In short: as §1

Solanum nigrum (SOLNI) [9] = assay: Post-emergence herbicidal glasshouse test on Solanum nigrum; details: post-emergence; 1000 g/h; evaluated after 13 days
In short: as §1

[10] = test system: Amaranthus retoflexus (AMARE); assay: Pre-emergence herbicidal glasshouse test on Amaranthus retoflexus; details: pre-emergence; 1000 g/h; evaluated after 13 days
In short: as §1

[11] = test system: Ipomoea hederacea (IPOHE); assay: Pre-emergence herbicidal glasshouse test on Ipomoea hederacea; details: pre-emergence; 1000 g/h; evaluated after 13 days
In short: as §1

Solanum nigrum (SOLNI) [12] = assay: Pre-emergence herbicidal glasshouse test on Solanum nigrum; details: pre-emergence; 1000 g/h; evaluated after 13 days
In short: as §1

Structure (SMILES): CN(C)c1c(Cl)ccc(-c2cnn(C)c(=O)c2O)c1F [Compound 1.064]
- PRE Application SETFA herbicidal damage (five point scale) (Setaria faberi (SETFA) [1]): 1 (1=0-19% damage)
- PRE Application ECHCG herbicidal damage (five point scale) [2]: 1 (1=0-19% damage)
- POST Application SETFA herbicidal damage (five point scale) (Setaria faberi (SETFA) [3]): 1 (1=0-19% damage)
- POST Application ALOMY herbicidal damage (five point scale) [4]: 1 (1=0-19% damage)
- PRE Application ALOMY herbicidal damage (five point scale) [5]: 1 (1=0-19% damage)
- POST Application AMARE herbicidal damage (five point scale) [6]: 5 (5=80-100% damage)
- POST Application IPOHE herbicidal damage (five point scale) [7]: 4 (4=60-79% damage)
- POST Application ECHCG herbicidal damage (five point scale) [8]: 1 (1=0-19% damage)
- POST Application SOLNI herbicidal damage (five point scale) (Solanum nigrum (SOLNI) [9]): 5 (5=80-100% damage)
- PRE Application AMARE herbicidal damage (five point scale) [10]: 1 (1=0-19% damage)
- PRE Application IPOHE herbicidal damage (five point scale) [11]: 1 (1=0-19% damage)
- PRE Application SOLNI herbicidal damage (five point scale) (Solanum nigrum (SOLNI) [12]): 1 (1=0-19% damage)

Structure (SMILES): Cn1ncc(-n2ccc(O)c(C#N)c2=O)c(O)c1=O [Compound 1.066]
- PRE Application SETFA herbicidal damage (five point scale) (Setaria faberi (SETFA) [1]): 1 (1=0-19% damage)
- PRE Application ECHCG herbicidal damage (five point scale) [2]: 2 (2=20-39% damage)
- POST Application SETFA herbicidal damage (five point scale) (Setaria faberi (SETFA) [3]): 1 (1=0-19% damage)
- POST Application ALOMY herbicidal damage (five point scale) [4]: 2 (2=20-39% damage)
- PRE Application ALOMY herbicidal damage (five point scale) [5]: 3 (3=40-59% damage)
- POST Application AMARE herbicidal damage (five point scale) [6]: 1 (1=0-19% damage)
- POST Application IPOHE herbicidal damage (five point scale) [7]: 2 (2=20-39% damage)
- POST Application ECHCG herbicidal damage (five point scale) [8]: 1 (1=0-19% damage)
- POST Application SOLNI herbicidal damage (five point scale) (Solanum nigrum (SOLNI) [9]): 3 (3=40-59% damage)
- PRE Application AMARE herbicidal damage (five point scale) [10]: 4 (4=60-79% damage)
- PRE Application IPOHE herbicidal damage (five point scale) [11]: 5 (5=80-100% damage)
- PRE Application SOLNI herbicidal damage (five point scale) (Solanum nigrum (SOLNI) [12]): 4 (4=60-79% damage)

Structure (SMILES): Cc1nc(C(F)(F)F)ccc1-c1cnn(C)c(=O)c1O [Compound 1.067]
- PRE Application SETFA herbicidal damage (five point scale) (Setaria faberi (SETFA) [1]): 1 (1=0-19% damage)
- PRE Application ECHCG herbicidal damage (five point scale) [2]: 5 (5=80-100% damage)
- POST Application SETFA herbicidal damage (five point scale) (Setaria faberi (SETFA) [3]): 4 (4=60-79% damage)
- POST Application ALOMY herbicidal damage (five point scale) [4]: 2 (2=20-39% damage)
- PRE Application ALOMY herbicidal damage (five point scale) [5]: 1 (1=0-19% damage)
- POST Application AMARE herbicidal damage (five point scale) [6]: 5 (5=80-100% damage)
- POST Application IPOHE herbicidal damage (five point scale) [7]: 5 (5=80-100% damage)
- POST Application ECHCG herbicidal damage (five point scale) [8]: 5 (5=80-100% damage)
- POST Application SOLNI herbicidal damage (five point scale) (Solanum nigrum (SOLNI) [9]): 5 (5=80-100% damage)
- PRE Application AMARE herbicidal damage (five point scale) [10]: 4 (4=60-79% damage)
- PRE Application IPOHE herbicidal damage (five point scale) [11]: 2 (2=20-39% damage)
- PRE Application SOLNI herbicidal damage (five point scale) (Solanum nigrum (SOLNI) [12]): 3 (3=40-59% damage)

Structure (SMILES): Cc1nc(C(C)F)ccc1-c1cnn(C)c(=O)c1O (stereo not drawn) [Compound 1.068]
- PRE Application SETFA herbicidal damage (five point scale) (Setaria faberi (SETFA) [1]): 2 (2=20-39% damage)
- PRE Application ECHCG herbicidal damage (five point scale) [2]: 5 (5=80-100% damage)
- POST Application SETFA herbicidal damage (five point scale) (Setaria faberi (SETFA) [3]): 3 (3=40-59% damage)
- POST Application ALOMY herbicidal damage (five point scale) [4]: 3 (3=40-59% damage)
- PRE Application ALOMY herbicidal damage (five point scale) [5]: 2 (2=20-39% damage)
- POST Application AMARE herbicidal damage (five point scale) [6]: 5 (5=80-100% damage)
- POST Application IPOHE herbicidal damage (five point scale) [7]: 5 (5=80-100% damage)
- POST Application ECHCG herbicidal damage (five point scale) [8]: 5 (5=80-100% damage)
- POST Application SOLNI herbicidal damage (five point scale) (Solanum nigrum (SOLNI) [9]): 5 (5=80-100% damage)
- PRE Application AMARE herbicidal damage (five point scale) [10]: 4 (4=60-79% damage)
- PRE Application IPOHE herbicidal damage (five point scale) [11]: 3 (3=40-59% damage)
- PRE Application SOLNI herbicidal damage (five point scale) (Solanum nigrum (SOLNI) [12]): 4 (4=60-79% damage)

Structure (SMILES): Cn1ncc(-n2ccc3ccccc3c2=O)c(O)c1=O [Compound 1.069]
- PRE Application SETFA herbicidal damage (five point scale) (Setaria faberi (SETFA) [1]): 2 (2=20-39% damage)
- PRE Application ECHCG herbicidal damage (five point scale) [2]: 5 (5=80-100% damage)
- POST Application SETFA herbicidal damage (five point scale) (Setaria faberi (SETFA) [3]): 1 (1=0-19% damage)
- POST Application ALOMY herbicidal damage (five point scale) [4]: 2 (2=20-39% damage)
- PRE Application ALOMY herbicidal damage (five point scale) [5]: 1 (1=0-19% damage)
- POST Application AMARE herbicidal damage (five point scale) [6]: 5 (5=80-100% damage)
- POST Application IPOHE herbicidal damage (five point scale) [7]: 4 (4=60-79% damage)
- POST Application ECHCG herbicidal damage (five point scale) [8]: 5 (5=80-100% damage)
- POST Application SOLNI herbicidal damage (five point scale) (Solanum nigrum (SOLNI) [9]): 4 (4=60-79% damage)
- PRE Application AMARE herbicidal damage (five point scale) [10]: 2 (2=20-39% damage)
- PRE Application IPOHE herbicidal damage (five point scale) [11]: 4 (4=60-79% damage)
- PRE Application SOLNI herbicidal damage (five point scale) (Solanum nigrum (SOLNI) [12]): 2 (2=20-39% damage)

Structure (SMILES): COc1cccn(-c2cnn(C)c(=O)c2O)c1=O [Compound 1.070]
- PRE Application SETFA herbicidal damage (five point scale) (Setaria faberi (SETFA) [1]): 1 (1=0-19% damage)
- PRE Application ECHCG herbicidal damage (five point scale) [2]: 1 (1=0-19% damage)
- POST Application SETFA herbicidal damage (five point scale) (Setaria faberi (SETFA) [3]): 4 (4=60-79% damage)
- POST Application ALOMY herbicidal damage (five point scale) [4]: 1 (1=0-19% damage)
- PRE Application ALOMY herbicidal damage (five point scale) [5]: 1 (1=0-19% damage)
- POST Application AMARE herbicidal damage (five point scale) [6]: 3 (3=40-59% damage)
- POST Application IPOHE herbicidal damage (five point scale) [7]: 1 (1=0-19% damage)
- POST Application ECHCG herbicidal damage (five point scale) [8]: 4 (4=60-79% damage)
- POST Application SOLNI herbicidal damage (five point scale) (Solanum nigrum (SOLNI) [9]): 4 (4=60-79% damage)
- PRE Application AMARE herbicidal damage (five point scale) [10]: 1 (1=0-19% damage)
- PRE Application IPOHE herbicidal damage (five point scale) [11]: 1 (1=0-19% damage)
- PRE Application SOLNI herbicidal damage (five point scale) (Solanum nigrum (SOLNI) [12]): 1 (1=0-19% damage)

Structure (SMILES): Cn1ncc(-c2ccc(C#N)cc2C(F)(F)F)c(O)c1=O [Compound 1.071]
- PRE Application SETFA herbicidal damage (five point scale) (Setaria faberi (SETFA) [1]): 4 (4=60-79% damage)
- PRE Application ECHCG herbicidal damage (five point scale) [2]: 5 (5=80-100% damage)
- POST Application SETFA herbicidal damage (five point scale) (Setaria faberi (SETFA) [3]): 4 (4=60-79% damage)
- POST Application ALOMY herbicidal damage (five point scale) [4]: 3 (3=40-59% damage)
- PRE Application ALOMY herbicidal damage (five point scale) [5]: 4 (4=60-79% damage)
- POST Application AMARE herbicidal damage (five point scale) [6]: 5 (5=80-100% damage)
- POST Application IPOHE herbicidal damage (five point scale) [7]: 5 (5=80-100% damage)
- POST Application ECHCG herbicidal damage (five point scale) [8]: 5 (5=80-100% damage)
- POST Application SOLNI herbicidal damage (five point scale) (Solanum nigrum (SOLNI) [9]): 5 (5=80-100% damage)
- PRE Application AMARE herbicidal damage (five point scale) [10]: 5 (5=80-100% damage)
- PRE Application IPOHE herbicidal damage (five point scale) [11]: 2 (2=20-39% damage)
- PRE Application SOLNI herbicidal damage (five point scale) (Solanum nigrum (SOLNI) [12]): 5 (5=80-100% damage)

Structure (SMILES): COCCOCc1nc(C(F)(F)F)ccc1-c1cnn(C)c(=O)c1O [Compound 1.072]
- PRE Application SETFA herbicidal damage (five point scale) (Setaria faberi (SETFA) [1]): 5 (5=80-100% damage)
- PRE Application ECHCG herbicidal damage (five point scale) [2]: 5 (5=80-100% damage)
- POST Application SETFA herbicidal damage (five point scale) (Setaria faberi (SETFA) [3]): 5 (5=80-100% damage)
- POST Application ALOMY herbicidal damage (five point scale) [4]: 4 (4=60-79% damage)
- PRE Application ALOMY herbicidal damage (five point scale) [5]: 4 (4=60-79% damage)
- POST Application AMARE herbicidal damage (five point scale) [6]: 5 (5=80-100% damage)
- POST Application IPOHE herbicidal damage (five point scale) [7]: 5 (5=80-100% damage)
- POST Application ECHCG herbicidal damage (five point scale) [8]: 5 (5=80-100% damage)
- POST Application SOLNI herbicidal damage (five point scale) (Solanum nigrum (SOLNI) [9]): 5 (5=80-100% damage)
- PRE Application AMARE herbicidal damage (five point scale) [10]: 5 (5=80-100% damage)
- PRE Application IPOHE herbicidal damage (five point scale) [11]: 5 (5=80-100% damage)
- PRE Application SOLNI herbicidal damage (five point scale) (Solanum nigrum (SOLNI) [12]): 5 (5=80-100% damage)
